Test results published in patent US9809626B2, “Antibacterial agents: salinamide derivatives” (priority 2012, dated 2017).
Converted amounts (≈) assume the structure as drawn. Read-outs that look alike come from different tables or passages of the source. Numbered stars: 1 amine (or outer) side, 2 acyl side, 3 side chain; on linkers, the order of the positions; unused ones are H or OH. Bridge positions count the residues as written; N and C are the ends. Square brackets hold non-standard residues; d marks the D form. Peptide text beside a SMILES is read from it. * marks the point of attachment. X2 = C[C@@H](Oc1ccc([C@H](N[*:1])C(=O)[*:2])cc1)[C@](O)(/C=C/C(=O)[*:3])CBr; X3 = C[C@@H](Oc1ccc([C@H](N[*:1])C(=O)[*:2])cc1)C(O)(/C=C/C(=O)[*:3])CCl; X1 = C[C@@H](Oc1ccc([C@H](N[*:1])C(=O)[*:2])cc1)C1(/C=C/C(=O)[*:3])CO1; Pentanoyl(2R-Me,3R-OH,4-Me) = CC(C)[C@@H](O)[C@@H](C)C(=O)*; d(aIle) = CC[C@H](C)[C@@H](N)C(=O)O; d(aThr) = C[C@@H](O)[C@@H](N)C(=O)O; NMeF = CN[C@@H](Cc1ccccc1)C(=O)O

Experiments:
[1] = tested on: Escherichia coli D21f2tolC; test: Antibacterial activity, broth microdilution; type: cell-based; settings: for MIC50: Escherichia coli, D21F2TOLC, read-out: MIC50 Escherichia coli D21f2tolC
Text: (§1) Antibacterial activity was quantified using broth microdilution [Clinical and Laboratory Standards Institute (CLSI/NCCLS), Methods for Dilution Antimicrobial Susceptibility Tests for Bacteria That Grow Aerobically; Approved Standard, Eighth Edition. CLIS Document M07-A8 (CLIS, Wayne Pa.), 2009]. Assays with Enterobacter cloacae ATCC13047, Pseudomonas aeruginosa ATCC10145, and Escherichia coli D21f2to1C, employed a starting cell density of 2-5×10^5 cfu/ml, Mueller Hinton II cation adjusted broth (BD Biosciences, Inc.), and an air atmosphere. Assays with Haemophilus influenzae ATCC49247 and Neisseria gonorrhoeae ATCC19424 employed a starting cell density of 2-5×10^5 cfu/ml, Haemophilus Test Medium broth (Barry et al., 1993) and a 5% CO2/95% air atmosphere. MIC50 was defined as the minimal concentration resulting in ≧50% inhibition of bacterial growth.

[2] = tested on: Enterobacter cloacae ATCC13047; test: Antibacterial activity, broth microdilution; type: cell-based; settings: for MIC50: Enterobacter cloacae, ATCC13047, minimal concentration resulting in ≧50% inhibition of bacterial growth, read-out: MIC50 Enterobacter cloacae ATCC 13047; for antibacterial activity against Enterobacter cloacae: Gram-negative bacterial pathogen
Text: as §1

[3] = tested on: Pseudomonas aeruginosa ATCC10145; test: Antibacterial activity, broth microdilution; type: cell-based; settings: for antibacterial activity against Pseudomonas aeruginosa: Gram-negative bacterial pathogen
Text: as §1

[4] = tested on: Haemophilus influenzae ATCC49247; test: Antibacterial activity, broth microdilution; type: cell-based; settings: for antibacterial activity against Haemophilus influenzae: Gram-negative bacterial pathogen
Text: as §1

[5] = tested on: Neisseria gonorrhoeae ATCC19424; test: Antibacterial activity, broth microdilution; type: cell-based; settings: for antibacterial activity against Neisseria gonorrhoeae: Gram-negative bacterial pathogen
Text: as §1

[6] = tested on: Gram-positive bacterial pathogens; settings: reported previously (Trischman et al. 1994; Moore et al. 1999); cited from earlier work
[7] = target: Escherichia coli RNAP σ70 holoenzyme (Escherichia coli, UniProt P0A8T7+P0A8V2); test: Fluorescence-detected RNAP assay, Escherichia coli RNAP; type: biochemical; settings: for IC50: fluorescent-detected RNAP assays
Chain of Escherichia coli RNAP σ70 holoenzyme (P0A8T7 whole entry, the tested form may be a part): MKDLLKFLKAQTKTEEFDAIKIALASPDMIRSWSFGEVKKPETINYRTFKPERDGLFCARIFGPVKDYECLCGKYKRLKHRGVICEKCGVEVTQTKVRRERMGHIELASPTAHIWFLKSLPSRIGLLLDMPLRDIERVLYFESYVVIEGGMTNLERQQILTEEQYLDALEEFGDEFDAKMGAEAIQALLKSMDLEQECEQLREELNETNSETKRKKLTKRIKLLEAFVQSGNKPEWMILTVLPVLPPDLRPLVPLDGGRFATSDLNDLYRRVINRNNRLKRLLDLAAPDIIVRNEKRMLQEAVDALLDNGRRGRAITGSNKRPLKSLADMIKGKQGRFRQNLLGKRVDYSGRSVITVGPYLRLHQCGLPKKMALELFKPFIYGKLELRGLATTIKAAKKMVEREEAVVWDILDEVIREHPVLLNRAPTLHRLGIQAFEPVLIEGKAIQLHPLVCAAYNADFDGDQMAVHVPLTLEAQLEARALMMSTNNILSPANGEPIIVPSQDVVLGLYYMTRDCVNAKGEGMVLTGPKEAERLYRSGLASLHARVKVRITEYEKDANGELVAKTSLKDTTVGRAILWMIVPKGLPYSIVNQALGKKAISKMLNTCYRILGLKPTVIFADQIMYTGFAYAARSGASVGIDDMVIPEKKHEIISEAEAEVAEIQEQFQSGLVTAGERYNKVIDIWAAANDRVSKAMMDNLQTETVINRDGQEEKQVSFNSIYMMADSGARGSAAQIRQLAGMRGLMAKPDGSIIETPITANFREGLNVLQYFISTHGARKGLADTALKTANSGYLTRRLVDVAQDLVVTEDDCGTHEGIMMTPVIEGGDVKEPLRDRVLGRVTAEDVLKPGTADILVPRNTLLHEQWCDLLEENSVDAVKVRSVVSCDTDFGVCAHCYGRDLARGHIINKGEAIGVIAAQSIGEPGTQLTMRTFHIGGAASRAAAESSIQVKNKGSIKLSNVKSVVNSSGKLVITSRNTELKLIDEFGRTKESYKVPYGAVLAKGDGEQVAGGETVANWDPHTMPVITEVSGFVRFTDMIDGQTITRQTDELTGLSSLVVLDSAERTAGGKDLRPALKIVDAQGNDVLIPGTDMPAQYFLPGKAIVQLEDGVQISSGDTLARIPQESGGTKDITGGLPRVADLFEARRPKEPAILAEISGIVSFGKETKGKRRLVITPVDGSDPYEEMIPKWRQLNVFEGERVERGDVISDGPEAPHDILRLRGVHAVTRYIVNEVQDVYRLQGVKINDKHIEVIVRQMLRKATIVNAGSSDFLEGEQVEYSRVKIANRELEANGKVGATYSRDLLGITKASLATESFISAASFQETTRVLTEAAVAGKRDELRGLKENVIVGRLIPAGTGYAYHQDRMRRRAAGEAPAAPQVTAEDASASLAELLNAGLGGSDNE
Chain of Escherichia coli RNAP σ70 holoenzyme (P0A8V2 whole entry, the tested form may be a part): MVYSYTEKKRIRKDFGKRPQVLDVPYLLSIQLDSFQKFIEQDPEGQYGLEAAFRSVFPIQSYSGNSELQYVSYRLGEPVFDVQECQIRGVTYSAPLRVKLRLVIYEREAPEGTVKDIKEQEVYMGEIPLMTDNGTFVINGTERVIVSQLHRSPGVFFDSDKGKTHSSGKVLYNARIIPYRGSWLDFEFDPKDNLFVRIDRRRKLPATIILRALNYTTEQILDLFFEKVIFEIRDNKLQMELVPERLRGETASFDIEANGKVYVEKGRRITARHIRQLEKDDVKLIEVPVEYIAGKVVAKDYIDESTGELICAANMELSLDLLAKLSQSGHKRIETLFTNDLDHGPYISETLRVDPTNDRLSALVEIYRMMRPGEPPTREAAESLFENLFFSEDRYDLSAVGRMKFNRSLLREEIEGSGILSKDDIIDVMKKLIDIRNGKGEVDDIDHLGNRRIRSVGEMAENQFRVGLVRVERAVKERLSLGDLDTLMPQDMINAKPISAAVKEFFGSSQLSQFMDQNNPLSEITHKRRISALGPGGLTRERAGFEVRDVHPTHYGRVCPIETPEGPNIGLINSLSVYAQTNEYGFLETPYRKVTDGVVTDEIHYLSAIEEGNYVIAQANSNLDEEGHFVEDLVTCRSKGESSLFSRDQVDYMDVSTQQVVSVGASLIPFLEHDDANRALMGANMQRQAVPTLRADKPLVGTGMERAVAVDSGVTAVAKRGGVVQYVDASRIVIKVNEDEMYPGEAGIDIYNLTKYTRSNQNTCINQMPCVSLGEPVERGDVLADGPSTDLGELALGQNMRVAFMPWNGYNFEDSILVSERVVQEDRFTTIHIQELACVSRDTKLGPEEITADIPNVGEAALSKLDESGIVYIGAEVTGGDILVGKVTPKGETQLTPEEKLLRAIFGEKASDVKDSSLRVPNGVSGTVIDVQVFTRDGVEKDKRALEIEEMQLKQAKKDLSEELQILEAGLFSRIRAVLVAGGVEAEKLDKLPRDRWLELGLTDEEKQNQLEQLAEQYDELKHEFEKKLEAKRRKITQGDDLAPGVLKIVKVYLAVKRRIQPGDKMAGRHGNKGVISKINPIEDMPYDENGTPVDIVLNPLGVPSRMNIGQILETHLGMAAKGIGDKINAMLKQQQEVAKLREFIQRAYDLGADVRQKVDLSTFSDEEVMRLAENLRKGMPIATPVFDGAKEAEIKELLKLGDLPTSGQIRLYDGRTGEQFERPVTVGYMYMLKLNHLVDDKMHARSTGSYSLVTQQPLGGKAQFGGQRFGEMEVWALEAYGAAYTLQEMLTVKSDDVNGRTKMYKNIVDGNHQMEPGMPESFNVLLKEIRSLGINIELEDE
Chain of Escherichia coli RNAP σ70 holoenzyme (P0A7Z4 whole entry, further chain, the tested form may be a part): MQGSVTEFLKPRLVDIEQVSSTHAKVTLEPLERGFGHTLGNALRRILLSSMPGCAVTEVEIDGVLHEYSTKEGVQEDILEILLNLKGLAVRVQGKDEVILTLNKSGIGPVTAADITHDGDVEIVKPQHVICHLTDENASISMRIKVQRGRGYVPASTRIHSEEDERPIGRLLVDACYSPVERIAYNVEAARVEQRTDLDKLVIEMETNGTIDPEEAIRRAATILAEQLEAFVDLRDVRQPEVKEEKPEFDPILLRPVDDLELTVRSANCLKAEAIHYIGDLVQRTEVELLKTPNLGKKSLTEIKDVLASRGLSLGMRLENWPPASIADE
Chain of Escherichia coli RNAP σ70 holoenzyme (P0A800 whole entry, further chain, the tested form may be a part): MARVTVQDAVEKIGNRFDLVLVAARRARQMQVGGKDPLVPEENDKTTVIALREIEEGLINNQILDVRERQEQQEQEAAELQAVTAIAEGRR
Chain of Escherichia coli RNAP σ70 holoenzyme (P00579 whole entry, further chain, the tested form may be a part): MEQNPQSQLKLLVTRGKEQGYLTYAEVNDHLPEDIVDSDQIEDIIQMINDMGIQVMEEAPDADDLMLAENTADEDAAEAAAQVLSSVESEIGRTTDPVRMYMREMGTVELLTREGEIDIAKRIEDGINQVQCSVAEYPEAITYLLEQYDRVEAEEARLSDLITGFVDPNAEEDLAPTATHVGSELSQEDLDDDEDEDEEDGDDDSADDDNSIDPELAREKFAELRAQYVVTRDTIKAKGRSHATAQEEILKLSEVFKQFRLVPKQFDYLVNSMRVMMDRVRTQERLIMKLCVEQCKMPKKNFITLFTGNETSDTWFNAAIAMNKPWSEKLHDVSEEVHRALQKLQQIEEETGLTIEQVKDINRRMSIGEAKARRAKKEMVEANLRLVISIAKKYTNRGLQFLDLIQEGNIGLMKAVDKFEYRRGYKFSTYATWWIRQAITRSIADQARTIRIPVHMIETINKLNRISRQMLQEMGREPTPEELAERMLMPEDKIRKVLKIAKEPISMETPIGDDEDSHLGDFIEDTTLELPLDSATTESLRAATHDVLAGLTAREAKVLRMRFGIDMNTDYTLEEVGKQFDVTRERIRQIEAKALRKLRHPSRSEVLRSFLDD
Protocol: Fluorescence-detected RNAP assays with Escherichia coli RNAP were performed by a modification of the procedure of Kuhlman et al., Anal. Biochem. 324:183-190, 2004]. Reaction mixtures contained (20 μl): 0-100 nM test compound, 75 nM Escherichia coli RNAP σ^70 holoenzyme, 20 nM 384 bp DNA fragment containing the bacteriophage T4 N25 promoter, 100 μM ATP, 100 μM GTP, 100 μM UTP, 100 μM CTP, 50 mM Tris-HCl, pH 8.0, 100 mM KCl, 10 mM MgCl2, 1 mM DTT, 10 μg/ml bovine serum albumin, and 5.5% glycerol. Reaction components other than DNA and NTPs were pre-incubated for 10 min at 37° C. Reactions were carried out by addition of DNA and incubation for 5 min at 37° C., followed by addition of NTPs and incubation for 60 min at 37° C. DNA was removed by addition of 1 μl 5 mM CaCl2 and 2 U DNasel (Ambion, Inc.), followed by incubation for 90 min at 37° C. RNA was quantified by addition of 100 μl RiboGreen RNA Quantitation Reagent (Invitrogen, Inc.; 1:500 dilution in Tris-HCl, pH 8.0, 1 mM EDTA), followed by incubation for 10 min at 25° C., followed by measurement of fluorescence intensity [excitation wavelength=485 nm and emission wavelength=535 nm; QuantaMaster QM1 spectrofluorometer (PTI, Inc.)].
(§2) Half-maximal inhibitory concentrations (IC50s) were calculated by non-linear regression in SigmaPlot (SPSS, Inc.).

[8] = tested on: Gram-positive and Gram-negative bacterial RNAP; test: Inhibition of bacterial RNAP in vitro (statement); type: biochemical; settings: disclosed herein
[9] = tested on: human RNAP I, II, and III; test: Radiochemical assay with human RNAP I, II, and III (HeLaScribe Nuclear Extract); type: biochemical
Protocol: Radiochemical assays with human RNAP I, II, and III were performed essentially as described [Sawadogo and Roeder, Cell 43:165-75, 1985]. Reaction mixtures contained (20 μl): 0-100 μM test compound, 8 U HeLaScribe Nuclear Extract (Promega, Inc.), 1 μg human placental DNA (Sigma-Aldrich), 400 μM ATP, 400 μM [α^32P]UTP (0.11 Bq/fmol), 400 μM CTP, 400 μM GTP, 50 mM Tris-HCl, pH 8.0, 7 mM HEPES-NaOH, 70 mM (NH4)2SO4, 50 mM KCl, 12 mM MgCl2, 5 mM DTT, 0.1 mM EDTA, 0.08 mM phenylmethylsulfonyl fluoride, and 16% glycerol. Reaction components other than DNA and NTPs were pre-incubated 10 min at 30° C., DNA was added and reaction mixtures were incubated 15 min at 30° C., NTPs were added and reaction mixtures were incubated 60 min at 30° C. Reaction mixtures were spotted on DE81 filter discs (Whatman, Inc.; pre-wetted with water) and incubated 1 min at room temperature. Filters were washed with 3×3 ml Na2HPO4, 2×3 ml water, and 3 ml ethanol, using a filter manifold (Hoefer, Inc.). Filters were placed in scintillation vials containing 10 ml Scintiverse BD Cocktail (Thermo Fisher, Inc.), and radioactivity was quantified by scintillation counting (LS6500; Beckman-Coulter, Inc.).
as §2

[10] = tested on: Vero E6 cells (ATCC CRL1586); test: Cytotoxicity to mammalian cells in culture (CellTiter96 assay); type: cell-based; settings: for MIC50 Vero E6 ATCC CRL1586: Table 3
Text: MICs for mammalian cells (Vero E6) in culture were quantified using CellTiter96 assay (Promega. Inc.; procedures as specified by the manufacturer).

[11] = target: T1, Escherichia coli RNAP holoenzyme (Escherichia coli, UniProt P0A8T7+P0A8V2); test: Radiochemical RNAP assay, Escherichia coli RNAP; type: biochemical
T1 construct: made in house
Protocol: (§3) Radiochemical RNAP assays with Escherichia coli RNAP and Staphylococcus aureus RNAP were performed as follows: Reaction mixtures contained (10 μl): 0-100 μM test compound, bacterial RNAP holoenzyme [75 nM Escherichia coli RNAP holoenzyme (prepared as in Mukhopadhyay et al., Meths. Enzymol. 371:144-159, 2003) or 75 nM Staphylococcus aureus RNAP core enzyme and 300 nM Staphylococcus aureus σ^A (prepared as in Srivastava et al., Curr. Opin. Microbiol. 14:532-543, 2011)], 20 nM DNA fragment N25-lacUV5-14 [positions −100 to −1 of the bacteriophage T5 N25 promoter followed by positions +1 to +29 of the lacUV5(+10A; +15C) promoter; prepared by PCR amplification of a synthetic nontemplate-strand oligodeoxyribonucleotide], 0.5 mM ApA, 100 μM □[α^32P]UTP (0.2 Bq/fmol), 100 μM ATP, and 100 μM GTP in TB (50 mM Tris-HCl, pH 7.9, 100 mM KCl, 10 mM MgCl2, 1 mM DTT, 100 μg/ml bovine serum albumin, and 5% glycerol). […] Products were applied to 7 M urea 15% polyacrylamide (19:1 acrylamide:bisacrylamide) slab gels (Bio-Rad), electrophoresed in TBE (90 mM Tris-borate, pH 8.0, and 2 mM EDTA), and analyzed by storage-phosphor scanning (Typhoon; GE Healthcare, Inc.).
as §2

[12] = target: T2, Staphylococcus aureus RNAP (Staphylococcus aureus, UniProt P47768+Q2G0N5); test: Radiochemical RNAP assay, Staphylococcus aureus RNAP; type: biochemical
T2 construct: made in house
Protocol: as §3, §2

[13] = tested on: bacterial cells in culture; settings: Ebright et al., WO/2012/129173; cited from earlier work
[14] = target: RNAP-promoter open complex (Escherichia coli, UniProt P0A8T7+P0A8V2); test: Formation of the RNAP-promoter open complex; type: biochemical
[15] = tested on: rifamycin-, CBR703-, streptolydigin-, myxopyronin- and lipiarmycin-resistant mutants; settings: disclosed herein
[16] = tested on: RNAP; test: Mechanism of transcription inhibition (nucleotide addition, trigger loop, NTP competition); type: biochemical
[17] = tested on: Gram-positive and Gram-negative bacterial RNAP; settings: reported previously (Miao et al. 1997); cited from earlier work
[18] = tested on: rifamycin-, CBR703-, streptolydigin-, myxopyronin- and lipiarmycin-resistant mutants; settings: Ebright et al., WO/2012/129173; cited from earlier work
[19] = read-out: IC50 human RNAP I/II/III

| SMILES | MIC50 [1] | MIC50 [2] | antibacterial activity against Enterobacter cloacae [2] | antibacterial activity against Pseudomonas aeruginosa [3] | antibacterial activity against Haemophilus influenzae [4] | antibacterial activity against Neisseria gonorrhoeae [5] | antibacterial activity against Gram-positive bacterial pathogens [6] | IC50 [7] | inhibition of human RNAP I, II, and III [9] | IC50 [9, 19] | inhibition of growth of mammalian cells in culture [10] | MIC50 Vero E6 ATCC CRL1586 [10] | also measured |
| --- | --- | --- | --- | --- | --- | --- | --- | --- | --- | --- | --- | --- | --- |
| CC[C@H](C)[C@H]1NC(=O)[C@@H](NC(=O)[C@H](C)[C@H](O)C(C)C)[C@@H](C)OC(=O)[C@@H]2COC(=O)CNC(=O)/C=C/C(O)(CCl)[C@@H](C)Oc3ccc(cc3)[C@H](NC1=O)C(=O)N(C)[C@@H](Cc1ccccc1)C(=O)N[C@H]([C@@H](C)O)C(=O)N2 (stereo partly drawn) [SalB (2), salinamide B] ({Pentanoyl(2R-Me,3R-OH,4-Me)}-T[d(aIle)][X3][NMeF][d(aThr)]S; ester 1-C; linker 3-6 via G) | 0.098 µg/mL (≈ 0.0927 µM) | 6.25 µg/mL (≈ 5.92 µM) | exhibit antibacterial activity | exhibit antibacterial activity | exhibit antibacterial activity | exhibit antibacterial activity | exhibit antibacterial activity | 1000 nM | do not detectably inhibit | > 100000 nM | do not detectably inhibit | >100 µg/mL | inhibition of Gram-positive and Gram-negative bacterial RNAP in vitro [8]: inhibits |
| CC[C@H](C)[C@H]1NC(=O)[C@@H](NC(=O)[C@H](C)[C@H](O)C(C)C)[C@@H](C)OC(=O)[C@@H]2COC(=O)CNC(=O)/C=C/[C@](O)(CBr)[C@@H](C)Oc3ccc(cc3)[C@H](NC1=O)C(=O)N(C)[C@@H](Cc1ccccc1)C(=O)N[C@H]([C@@H](C)O)C(=O)N2 [Sal-Br (3), Sal-Br] ({Pentanoyl(2R-Me,3R-OH,4-Me)}-T[d(aIle)][X2][NMeF][d(aThr)]S; ester 1-C; linker 3-6 via G) | 0.049 µg/mL (≈ 0.0445 µM) | 1.56 µg/mL (≈ 1.42 µM) |  |  |  |  |  |  |  | > 100000 nM |  | >100 µg/mL | antibacterial activity ([1]; refers to Table 2 (E. coli D21f2tolC and Enterobacter cloacae)): essentially full; MIC50 ([3]; Pseudomonas aeruginosa, ATCC10145, minimal concentration resulting in ≧50% inhibition of bacterial growth): 50 µg/mL (≈ 45.4 µM); MIC50 ([4]; Haemophilus influenzae, ATCC49247, minimal concentration resulting in ≧50% inhibition of bacterial growth): 6.25 µg/mL (≈ 5.68 µM); MIC50 ([5]; Neisseria gonorrhoeae, ATCC19424, minimal concentration resulting in ≧50% inhibition of bacterial growth): 1.56 µg/mL (≈ 1.42 µM); RNAP-inhibitory activity ([7]; refers to Table 1): essentially full; IC50 ([9]; radiochemical assay, read-out: IC50 human RNAP I, II, and III): > 100000 nM; IC50 [11]: 780 ± 50 nM; MIC Vero E6 cells ([10]; growth of mammalian cells in culture): > 50 µg/mL; IC50 [12]: 540 ± 40 nM |
| CC[C@H](C)[C@H]1NC(=O)[C@@H](NC(=O)[C@H](C)[C@H](O)C(C)C)[C@@H](C)OC(=O)[C@@H]2COC(=O)CNC(=O)/C=C/C3(CO3)[C@@H](C)Oc3ccc(cc3)[C@H](NC1=O)C(=O)N(C)[C@@H](Cc1ccccc1)C(=O)N[C@H]([C@@H](C)O)C(=O)N2 (stereo partly drawn) [SalA (1), salinamide A] ({Pentanoyl(2R-Me,3R-OH,4-Me)}-T[d(aIle)][X1][NMeF][d(aThr)]S; ester 1-C; linker 3-6 via G) | 0.024 µg/mL (≈ 0.0235 µM) | 1.56 µg/mL (≈ 1.53 µM) | exhibit antibacterial activity | exhibit antibacterial activity | exhibit antibacterial activity | exhibit antibacterial activity | exhibit antibacterial activity | 1000 nM | do not detectably inhibit | > 100000 nM | do not detectably inhibit | >100 µg/mL | inhibition of RNA synthesis in bacterial cells in culture [13]: inhibits; inhibition of formation of the RNAP-promoter open complex in transcription initiation [14]: does not inhibit; cross-resistance of streptolydigin-resistant, myxopyronin-resistant, and lipiarmycin-resistant mutants with Sal [15]: do not exhibit cross-resistance; inhibition of nucleotide addition in transcription initiation and transcription elongation [16]: inhibits; inhibition of wild-type RNAP versus RNAP-derivative having a deletion of the trigger loop [16]: equal extents; mode of transcription inhibition with respect to NTP substrate [16]: noncompetitive; inhibition of Gram-positive and Gram-negative bacterial RNAP in vitro [17]: inhibits; cross-resistance of CBR703-resistant mutants to Sal [18]: not cross-resistant; cross-resistance of rifamycin-resistant mutants to Sal [18]: not cross-resistant |
